Data from US20060160777A1, “New use of GABAbeta receptor agonists” (priority 2004, published 2006).
Where two headings read alike, the source gives them in different places.

Key:
[1] = Pharmacokinetics in female dogs after single intravenous and oral doses; assay type: in vivo, dog; details: for half-life / clearance / Vd: Beagle and Labrador; for Vd: read-out: Vss (volume of distribution at steady state); for F (oral availability): oral vs intravenous
Experimental: In the present studies dogs received single intravenous and oral doses of 3-APPiA, (2R)-(3-amino-2-fluoropropyl) phosphinic acid (A), (2S)-(3-amino-2-hydroxypropyl) phosphinic acid A), (3-amino-2-oxopropyl) phosphinic acid (C) and 3-amino-2-fluoropropyl) phosphinic acid (D) at therapeutic doses. The plasma concentrations of each compound was determined by LC-MS. The mean values of the total plasma clearance (CL), the half-life (TA), the volume of distribution at steady state (Vs), the oral availability (F), are summarised in Table 5.
Eight female Beagle and four Labrador dogs were used. The dogs were identified by a number tattooed in the ear. The animals had free access to water and were fed once a day (GLP diet) at approximately 1 p.m. On the experimental day, the dogs had not eaten since approximately 1 p.m. on the day before and were not allowed to eat until 6 hours after dosing.
The test formulations were administered intravenously in a superficial front leg vein (this vein was not used for blood sampling during 2 hours after dosing) or orally by gavage. The gavage tube was rinsed with about 20 mL of water and emptied with 20 mL of air before it was taken out. The oral and intravenous dose volumes were 1 and 0.5 mL/kg, respectively
Blood samples of about 2 mL were taken from a superficial front leg vein pre-dose and at 5, 10, 20, 40, 90 minutes, 3, 5, 8 and 24 hours after dosing. The blood samples were collected in heparinized glass tubes (Venoject®) and centrifuged (10 min, 3000 g, +4° C.). The plasma was then transferred to plastic tubes and stored at about −20° C. until analysis.
The pharmacokinetic parameters were calculated by non-compartment analysis using WinNonlin Professional (Pharsight Corporation, California, USA). The area under the plasma concentration-time curve (AUC(0-t)) was calculated using a combination of the linear and logarithmic trapezoidal rule from the time of administration to the sampling time with the last determinable plasma concentration (3, 5, 8 or 24 h). For the intravenous bolus dose, the concentration at time zero (C(0)) was estimated by log-linear regression of the first two concentration-time points. The AUC(0-t) was extrapolated to infinity by adding Ct/k. Ct was the predicted plasma concentration at the time of the last plasma sample with a determinable concentration and k was the apparent terminal rate constant. Ct and k were obtained by linear least-squares regression analysis of the logarithm of the last 3 to 5 plasma concentrations versus time. The apparent terminal half-life (t1/2) was calculated as In 2/k, wherein k is elimination constant, i.e. the slope of the decreasing curve.
The oral bioavailability (F) for each dog was calculated from individual AUC (area under the curve) and dose values. The calculation was made as follows: (AUCpo·Doseiv/AUCic·Dosepo)·100.
Estimates of total plasma clearance and of volume of distribution were calculated from plasma concentration data obtained after intravenous bolus injection. The total plasma clearance (CL) was calculated as Dosei.v./AUCi.v., and the volume of distribution at steady is state (Vss) was calculated as MRTi.v.·CL. The mean residence time after intravenous administration (MRTi.v.) was calculated as AUMC/AUC for bolus injection, wherein AUMC is the area under the first-moment versus time curve. The results are presented by descriptive statistics. The pharmacokinetic parameters are presented as geometric mean and range.

[2] = system: citric acid-induced cough in conscious guinea pigs; assay: Citric acid-induced cough in conscious guinea pigs, GABAB agonists given subcutaneously; assay type: in vivo, guinea pig
From the text: Citric acid-induced cough was evoked in conscious guinea pigs. Male Hartley guinea pigs (300-400 g) were placed in a chamber with a continuous flow of air. Positive and negative pressure changes within the chamber were used to monitor the expiratory and inspiratory phases of respiration. A nebuliser was connected in series with the air pump, allowing aerosol delivery of citric acid (0.1-1 M).
Cough was defined based on the visual appearance of the respiratory manoeuvre, the characteristic sound, and by a signature pressure trace typified by an expiratory effort that produced a positive chamber pressure 10-20 times higher than that associated with tidal breathing and proceeded by a rapid and pronounced inspiratory effort. All data were recorded digitally. The total number of coughs and the estimated concentration of citric acid evoking 1, 2 and 5 coughs were determined for each experiment.
(§1) Four treatment groups were employed in this study: Vehicle control, baclofen, (2R)-(3-amino-2-fluoropropyl) phosphinic acid and (3-aminopropyl) phosphinic acid (3-APPiA). […] […] To assess CNS depressant effects of these compounds, their effects on respiratory rate and respiratory pattern (inspiratory and expiratory times) were assessed and compared to control.

[3] = system: conscious guinea pigs; assay: Effects of subcutaneously administered GABAB agonists on baseline respiratory rate in conscious guinea pigs; details: placebo 96.2 ± 3.8
Experimental: as §1
B. Effects of Subcutaneously Administered GABAB Agonists on Baseline Respiratory Rate in Conscious Guinea Pigs

[4] = 0.3 mg/kg s.c., 30 min before challenge, citric acid 0 M, mean ± spread
[5] = 0.3 mg/kg s.c., citric acid 0.01 M
[6] = 0.3 mg/kg s.c., citric acid 0.1 M
[7] = 0.3 mg/kg s.c., citric acid 0.3 M
[8] = 0.3 mg/kg s.c., citric acid 1 M
[9] = 3 mg/kg s.c., citric acid 0.01 M
[10] = 3 mg/kg s.c., citric acid 0.1 M
[11] = 3 mg/kg s.c., citric acid 0.3 M
[12] = dog, in vivo, female dogs, geometric mean, dose 2-7 μmol/kg per compound, read-out: T1/2 (half-life) (converted)
[13] = dog, in vivo, female dogs, intravenous bolus, geometric mean, dose 2-7 μmol/kg per compound, read-out: CL (total plasma clearance)
[14] = dog, in vivo, female dogs, intravenous bolus, geometric mean, dose 2-7 μmol/kg per compound
[15] = female dogs, geometric mean, dose 2-7 μmol/kg per compound

NCC(F)C[PH](=O)O (stereo not drawn) [D]
T1/2 (half-life) ([1]; dog, in vivo): 8.2 h
CL (total plasma clearance) ([1]; dog, in vivo, iv): 5.2 mL/min/kg
Vss (volume of distribution at steady state) ([1]; dog, in vivo, iv): 2.3 L/kg

NC[C@@H](F)C[PH](=O)O [A, (2R)-(3-amino-2-fluoropropyl) phosphinic acid]
half-life ([1]; female, dog, in vivo): 7.5 h
clearance ([1]; female, dog, in vivo, iv): 2.1 mL/min/kg
Cumulative number of coughs evoked by citric acid [2, 4]: 0 ± 0
Cumulative number of coughs evoked by citric acid [2, 5]: 0 ± 0
Cumulative number of coughs evoked by citric acid [2, 6]: 3.4 ± 1.1
Cumulative number of coughs evoked by citric acid [2, 7]: 11.4 ± 1.3
Cumulative number of coughs evoked by citric acid [2, 8]: 27.6 ± 3.7
Cumulative number of coughs evoked by citric acid ([2]; 3 mg/kg s.c., citric acid 0 M): 0 ± 0
Cumulative number of coughs evoked by citric acid [2, 9]: 0.1 ± 0.1
Cumulative number of coughs evoked by citric acid [2, 10]: 1.9 ± 1.1
Cumulative number of coughs evoked by citric acid [2, 11]: 9.0 ± 3.8
Cumulative number of coughs evoked by citric acid ([2]; 3 mg/kg s.c., citric acid 1 M): 15.4 ± 3.6
Cumulative number of coughs evoked by citric acid ([2]; 10 mg/kg s.c., citric acid 0 M): 0 ± 0
Cumulative number of coughs evoked by citric acid ([2]; 10 mg/kg s.c., citric acid 0.01 M): 0 ± 0
Cumulative number of coughs evoked by citric acid ([2]; 10 mg/kg s.c., citric acid 0.1 M): 0.6 ± 0.3
Cumulative number of coughs evoked by citric acid ([2]; 10 mg/kg s.c., citric acid 0.3 M): 3.8 ± 1.3
Cumulative number of coughs evoked by citric acid ([2]; 10 mg/kg s.c., citric acid 1 M): 9.7 ± 1.9

NCC(=O)C[PH](=O)O [C, (3-amino-2-oxopropyl) phosphinic acid]
half-life [1, 12]: 2.5 h
clearance [1, 13]: 8.2 mL/min/kg
Vd [1, 14]: 0.74 L/kg
F (oral availability) [1, 15]: 60%

NCCC[PH](=O)O [Compound 3-APPiA, (3-aminopropyl) phosphinic acid]
half-life [1, 12]: 0.52 h
clearance [1, 13]: 20 mL/min/kg
Vd [1, 14]: 0.55 L/kg
F (oral availability) [1, 15]: 10%
Baseline respiratory rate (result of study B, mean) ([3]; 0.3 mg/kg s.c.): 93.0 ± 5.6
Baseline respiratory rate (result of study B, mean) ([3]; 3 mg/kg s.c.): 97.9 ± 4.2
Cumulative number of coughs evoked by citric acid [2, 4]: 0 ± 0
Cumulative number of coughs evoked by citric acid [2, 5]: 0 ± 0
Cumulative number of coughs evoked by citric acid [2, 6]: 0.2 ± 0.2
Cumulative number of coughs evoked by citric acid [2, 7]: 7.8 ± 3.0
Cumulative number of coughs evoked by citric acid [2, 8]: 28.8 ± 2.9
Cumulative number of coughs evoked by citric acid ([2]; 3 mg/kg s.c., citric acid 0 M): 0 ± 0
Cumulative number of coughs evoked by citric acid [2, 9]: 0 ± 0
Cumulative number of coughs evoked by citric acid [2, 10]: 1.7 ± 0.9
Cumulative number of coughs evoked by citric acid [2, 11]: 3.9 ± 1.6
Cumulative number of coughs evoked by citric acid ([2]; 3 mg/kg s.c., citric acid 1 M): 16.1 ± 5.2

CP(=O)(O)CCCN [SKF97541, (3-aminopropyl)methyl phosphinic acid]
Baseline respiratory rate (result of study B, mean) ([3]; 0.1 mg/kg s.c.): 79.2 ± 16.5
Baseline respiratory rate (result of study B, mean) ([3]; 0.3 mg/kg s.c.): 68.6 ± 6.0
Cumulative number of coughs evoked by citric acid [2, 4]: 0 ± 0
Cumulative number of coughs evoked by citric acid [2, 5]: 0 ± 0
Cumulative number of coughs evoked by citric acid [2, 6]: 0.4 ± 0.2
Cumulative number of coughs evoked by citric acid [2, 7]: 3.8 ± 1.6
Cumulative number of coughs evoked by citric acid [2, 8]: 19.2 ± 5.8

NCC(CC(=O)O)c1ccc(Cl)cc1 (stereo not drawn) [Baclofen, 4-amino-3-(chlorophenyl)butanoic acid]
Baseline respiratory rate (result of study B, mean) ([3]; 0.3 mg/kg s.c.): 96.8 ± 8.5
Baseline respiratory rate (result of study B, mean) ([3]; 3 mg/kg s.c.): 78.1 ± 17.6
Cumulative number of coughs evoked by citric acid [2, 4]: 0 ± 0
Cumulative number of coughs evoked by citric acid [2, 5]: 1.0 ± 0
Cumulative number of coughs evoked by citric acid [2, 6]: 3.0 ± 0.6
Cumulative number of coughs evoked by citric acid [2, 7]: 12.3 ± 7.4
Cumulative number of coughs evoked by citric acid [2, 8]: 25.7 ± 4.8
Cumulative number of coughs evoked by citric acid ([2]; 3 mg/kg s.c., citric acid 0 M): 0 ± 0
Cumulative number of coughs evoked by citric acid [2, 9]: 0 ± 0
Cumulative number of coughs evoked by citric acid [2, 10]: 1.0 ± 0.5
Cumulative number of coughs evoked by citric acid [2, 11]: 6.0 ± 1.9
Cumulative number of coughs evoked by citric acid ([2]; 3 mg/kg s.c., citric acid 1 M): 14.3 ± 3.8

NC[C@H](O)C[PH](=O)O [B, (2S)-(3-amino-2-hydroxypropyl) phosphinic acid]
half-life [1, 12]: 0.5 h
clearance [1, 13]: 6.67 mL/min/kg
Vd [1, 14]: 0.25 L/kg
F (oral availability) [1, 15]: 86%
